Laboratory results from ChEMBL document CHEMBL5625183, “Discovery of a novel dual-target inhibitor of CDK12 and PARP1 that induces synthetic lethality for treatment of triple-negative breast cancer” (Eur J Med Chem, 2023).

What was measured:
MDA-MB-436 = assay: Antiproliferative activity against human MDA-MB-436 cells assessed as inhibition of cell growth incubated for 24 hrs by MTT assay; format: functional, cell-based; conditions: Homo sapiens, MDA-MB-436, 24 h
MDA-MB-231 = assay: Antiproliferative activity against human MDA-MB-231 cells assessed as inhibition of cell growth incubated for 24 hrs by MTT assay; format: functional, cell-based; conditions: MDA-MB-231, 24 h
[1] = biological target: Cyclin-dependent kinase 12 (Homo sapiens, UniProt Q9NYV4); assay: Inhibition of CDK12 (unknown origin) at 1 uM in presence of ATP by kinase-glo plus luminescent assay relative to control
MDA-MB-468 = assay: Antiproliferative activity against human MDA-MB-468 cells assessed as inhibition of cell growth incubated for 24 hrs by MTT assay; format: functional, cell-based; conditions: MDA-MB-468, 24 h

Chain of Cyclin-dependent kinase 12 (Q9NYV4 whole entry, looked up): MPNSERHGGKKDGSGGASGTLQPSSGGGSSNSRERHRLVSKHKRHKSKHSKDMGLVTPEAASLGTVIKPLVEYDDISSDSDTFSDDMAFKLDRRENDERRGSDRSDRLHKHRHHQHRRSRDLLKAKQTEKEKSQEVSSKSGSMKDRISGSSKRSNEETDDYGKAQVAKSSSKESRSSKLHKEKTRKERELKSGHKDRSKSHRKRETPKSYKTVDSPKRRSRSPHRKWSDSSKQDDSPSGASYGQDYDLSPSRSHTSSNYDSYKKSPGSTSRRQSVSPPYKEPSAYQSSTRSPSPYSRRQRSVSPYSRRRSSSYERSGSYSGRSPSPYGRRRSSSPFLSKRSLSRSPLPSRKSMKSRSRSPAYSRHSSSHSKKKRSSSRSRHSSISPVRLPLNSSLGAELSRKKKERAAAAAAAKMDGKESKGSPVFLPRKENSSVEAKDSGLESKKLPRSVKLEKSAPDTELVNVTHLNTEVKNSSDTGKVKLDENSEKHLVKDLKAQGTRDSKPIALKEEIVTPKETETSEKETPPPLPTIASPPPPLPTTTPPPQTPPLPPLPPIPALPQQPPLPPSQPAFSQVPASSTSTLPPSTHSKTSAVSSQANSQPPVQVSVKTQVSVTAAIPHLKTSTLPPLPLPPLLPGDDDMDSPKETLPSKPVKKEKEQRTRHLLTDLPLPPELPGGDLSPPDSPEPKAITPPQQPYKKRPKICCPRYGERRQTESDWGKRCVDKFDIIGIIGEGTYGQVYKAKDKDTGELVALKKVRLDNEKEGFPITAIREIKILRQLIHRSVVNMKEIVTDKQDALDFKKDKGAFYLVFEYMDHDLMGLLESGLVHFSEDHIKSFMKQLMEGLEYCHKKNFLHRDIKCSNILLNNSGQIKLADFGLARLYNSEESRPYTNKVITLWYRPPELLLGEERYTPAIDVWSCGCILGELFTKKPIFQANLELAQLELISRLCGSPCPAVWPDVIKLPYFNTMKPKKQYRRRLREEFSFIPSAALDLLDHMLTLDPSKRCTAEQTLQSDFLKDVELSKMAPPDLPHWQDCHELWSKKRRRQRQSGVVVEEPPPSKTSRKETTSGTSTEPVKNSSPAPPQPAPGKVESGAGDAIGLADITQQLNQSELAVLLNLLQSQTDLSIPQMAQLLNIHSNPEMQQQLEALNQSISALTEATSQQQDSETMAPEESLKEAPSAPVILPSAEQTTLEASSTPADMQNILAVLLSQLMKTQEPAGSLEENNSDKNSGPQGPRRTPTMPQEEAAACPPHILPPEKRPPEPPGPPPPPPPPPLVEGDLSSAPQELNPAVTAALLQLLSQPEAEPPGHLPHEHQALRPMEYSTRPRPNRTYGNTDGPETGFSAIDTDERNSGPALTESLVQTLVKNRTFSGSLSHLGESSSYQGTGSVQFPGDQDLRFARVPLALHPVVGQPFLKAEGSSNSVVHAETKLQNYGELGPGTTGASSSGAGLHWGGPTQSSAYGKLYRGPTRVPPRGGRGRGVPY

Compound	IC50 (MDA-MB-436)	IC50 (MDA-MB-231)	inhibition [1]	IC50 (MDA-MB-468)
NC(=O)c1cccc2[nH]c(NC(=O)c3cccc(C(=O)N4CCN(c5ncc(F)cn5)CC4)c3)nc12	> 30 µM	> 30 µM	31.6%	> 30 µM
N#Cc1ccc(NC2CCN(C(=O)c3ccc(C(=O)Nc4nc5c(C(N)=O)cccc5[nH]4)cc3)CC2)nc1	> 30 µM	> 30 µM	13.3%	> 30 µM
NC(=O)c1cccc2[nH]c(NC(=O)c3ccc(S(=O)(=O)N4CCC(Nc5ncc(Br)cn5)CC4)cc3)nc12	> 30 µM	26.6 µM	77.6%	24.6 µM
NC(=O)c1cccc2[nH]c(NC(=O)c3ccc(CN4CCC(Nc5ncc(I)cn5)CC4)cc3)nc12	28.9 µM	> 30 µM	40.8%	27.7 µM
NC(=O)c1cccc2[nH]c(NC(=O)c3cccc(C(=O)N4CCC(Nc5ncc([N+](=O)[O-])cn5)CC4)c3)nc12	> 30 µM	> 30 µM	5.4%	> 30 µM
NC(=O)c1cccc2[nH]c(NC(=O)c3ccc(CN4CCC(Nc5ncc(F)cn5)CC4)cc3)nc12	> 30 µM	> 30 µM	30.3%	> 30 µM
N#Cc1cnc(NC2CCN(C(=O)c3cccc(C(=O)Nc4nc5c(C(N)=O)cccc5[nH]4)c3)CC2)nc1	> 30 µM	> 30 µM	21.7%	> 30 µM
N#Cc1cnc(N2CCN(C(=O)c3cccc(C(=O)Nc4nc5c(C(N)=O)cccc5[nH]4)c3)CC2)nc1	> 30 µM	> 30 µM	32.6%	> 30 µM
NC(=O)c1cccc2[nH]c(NC(=O)c3cccc(C(=O)N4CCC(Nc5ccc(I)cn5)CC4)c3)nc12	> 30 µM	> 30 µM	30.1%	> 30 µM
N#Cc1cnc(N2CCN(C(=O)c3ccc(C(=O)Nc4nc5c(C(N)=O)cccc5[nH]4)cc3)CC2)nc1	> 30 µM	> 30 µM	28.5%	> 30 µM
NC(=O)c1cccc2[nH]c(NC(=O)c3cccc(C(=O)N4CCN(c5ncc(Cl)cn5)CC4)c3)nc12	> 30 µM	25.4 µM	44.1%	24.1 µM
NC(=O)c1cccc2[nH]c(NC(=O)c3ccc(C(=O)N4CCC(Nc5ccc(Br)cn5)CC4)cc3)nc12	> 30 µM	> 30 µM	25.9%	> 30 µM
NC(=O)c1cccc2[nH]c(NC(=O)c3ccc(C(=O)N4CCC(Nc5ccc(C(F)(F)F)cn5)CC4)cc3)nc12	> 30 µM	> 30 µM	26.7%	> 30 µM
NC(=O)c1cccc2[nH]c(NC(=O)c3ccc(CN4CCC(Nc5ncc(C(F)(F)F)cn5)CC4)cc3)nc12	> 30 µM	26.9 µM	34%	27.3 µM
NC(=O)c1cccc2[nH]c(NC(=O)c3ccc(C(=O)N4CCN(c5ncc(F)cn5)CC4)cc3)nc12	> 30 µM	> 30 µM	19.8%	> 30 µM
NC(=O)c1cccc2[nH]c(NC(=O)c3cccc(C(=O)N4CCC(Nc5ncccn5)CC4)c3)nc12	> 30 µM	> 30 µM	25%	> 30 µM
N#Cc1cnc(NC2CCN(C(=O)c3ccc(C(=O)Nc4nc5c(C(N)=O)cccc5[nH]4)cc3)CC2)nc1	> 30 µM	> 30 µM	27.5%	> 30 µM
NC(=O)c1cccc2[nH]c(NC(=O)c3ccc(C(=O)N4CCC(Nc5ccc(I)cn5)CC4)cc3)nc12	> 30 µM	> 30 µM	29.8%	> 30 µM
NC(=O)c1cccc2[nH]c(NC(=O)c3ccc(C(=O)N4CCC(Nc5nccc(C(F)(F)F)n5)CC4)cc3)nc12	> 30 µM	> 30 µM	16.8%	> 30 µM
NC(=O)c1cccc2[nH]c(NC(=O)c3ccc(C(=O)N4CCC(Nc5ncc([N+](=O)[O-])cn5)CC4)cc3)nc12	> 30 µM	> 30 µM	24.1%	> 30 µM
NC(=O)c1cccc2[nH]c(NC(=O)c3cccc(C(=O)N4CCC(Nc5ccc(Br)cn5)CC4)c3)nc12	> 30 µM	> 30 µM	25.6%	> 30 µM
Cc1cnc(NC2CCN(C(=O)c3cccc(C(=O)Nc4nc5c(C(N)=O)cccc5[nH]4)c3)CC2)nc1	> 30 µM	> 30 µM	1.3%	> 30 µM
NC(=O)c1cccc2[nH]c(NC(=O)c3cccc(C(=O)N4CCC(Nc5ccc(C(F)(F)F)cn5)CC4)c3)nc12	> 30 µM	> 30 µM	19.8%	> 30 µM

Now those with a lower IC50 (MDA-MB-436), led by results:

IC50 (MDA-MB-436)	IC50 (MDA-MB-231)	inhibition [1]	IC50 (MDA-MB-468)	Compound
22.7 µM	25.2 µM	36.4%	27.9 µM	COc1cnc(NC2CCN(C(=O)c3cccc(C(=O)Nc4nc5c(C(N)=O)cccc5[nH]4)c3)CC2)nc1
22.1 µM	24.5 µM	46.2%	23.7 µM	NC(=O)c1cccc2[nH]c(NC(=O)c3cccc(C(=O)N4CCN(c5ncc(Br)cn5)CC4)c3)nc12
17.8 µM	18.9 µM	52.1%	19.3 µM	NC(=O)c1cccc2[nH]c(NC(=O)c3cccc(C(=O)N4CCN(c5ncc(C(F)(F)F)cn5)CC4)c3)nc12
25.7 µM	26.8 µM	39.8%	27.3 µM	NC(=O)c1cccc2[nH]c(NC(=O)c3ccc(C(=O)N4CCN(c5ccc(C(F)(F)F)cn5)CC4)cc3)nc12
20.9 µM	20.1 µM	49.6%	21.8 µM	NC(=O)c1cccc2[nH]c(NC(=O)c3cccc(C(=O)N4CCN(c5ncc(I)cn5)CC4)c3)nc12
23 µM	25.5 µM	35.6%	27.6 µM	Cc1cnc(NC2CCN(C(=O)c3ccc(C(=O)Nc4nc5c(C(N)=O)cccc5[nH]4)cc3)CC2)nc1
24.4 µM	28.7 µM	38.8%	26.4 µM	NC(=O)c1cccc2[nH]c(NC(=O)c3ccc(C(=O)N4CCC(Nc5ncc(F)cn5)CC4)cc3)nc12
22.9 µM	25.8 µM	45.2%	26.3 µM	NC(=O)c1cccc2[nH]c(NC(=O)c3ccc(C(=O)N4CCN(c5ncc(I)cn5)CC4)cc3)nc12
24.2 µM	26.5 µM	45.4%	25.7 µM	NC(=O)c1cccc2[nH]c(NC(=O)c3ccc(CN4CCC(Nc5ncc(Br)cn5)CC4)cc3)nc12
22.3 µM	24.5 µM	44.1%	24.3 µM	CCc1cnc(NC2CCN(C(=O)c3ccc(C(=O)Nc4nc5c(C(N)=O)cccc5[nH]4)cc3)CC2)nc1
16.5 µM	19.3 µM	61.7%	18.5 µM	NC(=O)c1cccc2[nH]c(NC(=O)c3ccc(C(=O)N4CCC(Nc5ncc(I)cn5)CC4)cc3)nc12
24.6 µM	25.4 µM	46.4%	27.5 µM	NC(=O)c1cccc2[nH]c(NC(=O)c3cccc(C(=O)N4CCN(c5ccc(C(F)(F)F)cn5)CC4)c3)nc12
27.6 µM	28.2 µM	37.4%	27.3 µM	NC(=O)c1cccc2[nH]c(NC(=O)c3ccc(C(=O)N4CCN(c5ncc(Cl)cn5)CC4)cc3)nc12
25 µM	30 µM	32.4%	28.7 µM	NC(=O)c1cccc2[nH]c(NC(=O)c3ccc(C(=O)N4CCC(Nc5ncccn5)CC4)cc3)nc12
25.6 µM	27.4 µM	31.5%	28.9 µM	COc1cnc(NC2CCN(C(=O)c3ccc(C(=O)Nc4nc5c(C(N)=O)cccc5[nH]4)cc3)CC2)nc1
23.9 µM	24.1 µM	43%	24.2 µM	NC(=O)c1cccc2[nH]c(NC(=O)c3ccc(C(=O)N4CCN(c5ncc(C(F)(F)F)cn5)CC4)cc3)nc12
17.2 µM	19.5 µM	55.4%	21.3 µM	NC(=O)c1cccc2[nH]c(NC(=O)c3ccc(C(=O)N4CCC(Nc5ncc(Br)cn5)CC4)cc3)nc12
23.6 µM	24.2 µM	41.6%	25.1 µM	NC(=O)c1cccc2[nH]c(NC(=O)c3ccc(C(=O)N4CCN(c5ncc(Br)cn5)CC4)cc3)nc12
21.3 µM	24.2 µM	48.7%	23.1 µM	CCc1cnc(NC2CCN(C(=O)c3cccc(C(=O)Nc4nc5c(C(N)=O)cccc5[nH]4)c3)CC2)nc1
23.2 µM	22.8 µM	54.6%	25.2 µM	NC(=O)c1cccc2[nH]c(NC(=O)c3ccc(C(=O)N4CCC(Nc5ncc(C(F)(F)F)cn5)CC4)cc3)nc12
20.8 µM	24.9 µM	50.7%	23.5 µM	NC(=O)c1cccc2[nH]c(NC(=O)c3ccc(C(=O)N4CCC(Nc5ncc(Cl)cn5)CC4)cc3)nc12
27.1 µM	26.7 µM	69.9%	25.3 µM	NC(=O)c1cccc2[nH]c(NC(=O)c3ccc(S(=O)(=O)N4CCC(Nc5ncc(C(F)(F)F)cn5)CC4)cc3)nc12
25.8 µM	27 µM	43.1%	> 30 µM	NC(=O)c1cccc2[nH]c(NC(=O)c3ccc(CN4CCC(Nc5ncc(Cl)cn5)CC4)cc3)nc12
